From patent US11780893B2, “Kv1.3 blockers” (Zealand Pharma A/S, priority 2019, dated 2023)
Like-named read-outs stand apart in the source and are kept apart here. Bridge positions count the residues as written; N and C are the ends. Square brackets hold non-standard residues; d marks the D form. Peptide text beside a SMILES is read from it. Aad = N[C@@H](CCCC(=O)O)C(=O)O; Nle = CCCC[C@H](N)C(=O)O

Assays:
[1] = target: T1, human Kv1.3 voltage-gated K+ channel (Homo sapiens, UniProt P22001); assay: cell-based; details: inhibition of thallium flux, CHO-DUKX cells with human Kv1.3; read-out: IC50
T1 construct: host or cells: CHO-DUKX

[2] = target: Rat whole blood (Rattus norvegicus, UniProt P15384)
[3] = inhibition of IL-17A release, thapsigargin, 24 Hr, at least 2 replicates

Chain of Rat whole blood (P15384 whole entry): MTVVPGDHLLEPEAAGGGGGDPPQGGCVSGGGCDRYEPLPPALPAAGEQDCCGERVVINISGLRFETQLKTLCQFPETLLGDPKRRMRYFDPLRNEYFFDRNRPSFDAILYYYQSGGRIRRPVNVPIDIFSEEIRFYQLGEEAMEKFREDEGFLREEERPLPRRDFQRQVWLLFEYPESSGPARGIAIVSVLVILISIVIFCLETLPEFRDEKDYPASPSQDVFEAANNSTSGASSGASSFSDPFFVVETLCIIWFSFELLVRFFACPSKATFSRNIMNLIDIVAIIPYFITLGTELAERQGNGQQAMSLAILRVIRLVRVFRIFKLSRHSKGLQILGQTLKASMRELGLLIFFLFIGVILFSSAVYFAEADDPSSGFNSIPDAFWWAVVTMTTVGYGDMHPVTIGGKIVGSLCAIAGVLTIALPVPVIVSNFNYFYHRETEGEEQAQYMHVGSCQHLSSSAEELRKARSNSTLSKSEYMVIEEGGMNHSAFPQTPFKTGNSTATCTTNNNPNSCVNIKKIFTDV
T1 sequence (P22001 whole entry): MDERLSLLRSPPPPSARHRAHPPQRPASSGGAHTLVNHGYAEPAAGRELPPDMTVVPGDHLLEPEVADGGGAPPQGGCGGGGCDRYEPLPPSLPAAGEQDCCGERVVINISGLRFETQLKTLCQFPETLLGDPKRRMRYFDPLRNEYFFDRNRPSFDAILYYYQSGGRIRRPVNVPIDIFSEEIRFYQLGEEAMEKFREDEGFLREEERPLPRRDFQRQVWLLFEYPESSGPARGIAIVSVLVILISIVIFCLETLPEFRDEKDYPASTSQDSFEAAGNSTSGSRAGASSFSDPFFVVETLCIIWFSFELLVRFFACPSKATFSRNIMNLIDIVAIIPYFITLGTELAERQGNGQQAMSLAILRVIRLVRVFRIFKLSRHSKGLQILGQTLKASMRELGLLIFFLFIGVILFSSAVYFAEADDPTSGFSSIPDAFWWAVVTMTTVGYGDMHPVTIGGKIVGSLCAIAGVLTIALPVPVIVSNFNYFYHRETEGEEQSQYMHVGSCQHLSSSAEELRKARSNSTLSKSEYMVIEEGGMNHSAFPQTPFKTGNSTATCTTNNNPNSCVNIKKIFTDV

SMILES | IC50 [1] | IC50 [2] | IC50 [2, 3]
CCCC[C@H](NC(=O)[C@H](CC(=O)O)NC(=O)[C@H](CCCC)NC(=O)[C@@H](N)CO)C(=O)N[C@@H](CCCNC(=N)N)C(=O)N[C@H]1CSSC[C@@H]2NC(=O)[C@H](CCCCN)NC(=O)CNC(=O)[C@H](Cc3ccccc3)NC(=O)[C@H]([C@@H](C)CC)NC(=O)[C@H](CO)NC(=O)CNC(=O)[C@H]([C@@H](C)CC)NC(=O)[C@H](C)NC(=O)[C@H](CCCCN)NC(=O)[C@H](CC(C)C)NC(=O)[C@@H]3CSSC[C@@H](C(=O)N[C@@H](Cc4ccc(O)cc4)C(=O)N4CCC[C@H]4C(=O)N[C@@H](CCCNC(=N)N)C(N)=O)NC(=O)[C@H](CCCCN)NC(=O)[C@H](CSSC[C@H](NC(=O)[C@H](CCC(=O)O)NC(=O)[C@H](C(C)C)NC(=O)[C@H](CO)NC(=O)[C@H](C)NC(=O)[C@H](CO)NC1=O)C(=O)N[C@@H](CCCCN)C(=O)N[C@@H](CCCC(=O)O)C(=O)N[C@@H](CCCCN)C(=O)N3)NC(=O)[C@H](CCCCN)NC(=O)[C@H](CCCCN)NC(=O)[C@H](CC(N)=O)NC(=O)[C@H](CCSC)NC2=O [Compound 73] (H-S[Nle]D[Nle]RCSASVECK[Aad]KCLKAIGSIFGKCMNKKCKCYPR-NH2; disulfide 6-27, 12-32, 16-34) | 0.11 nM | ≤ 1 nM | 0.52 nM
CCCC[C@H](NC(=O)[C@H](CC(=O)O)NC(=O)[C@H](CCCC)NC(=O)[C@@H](N)CO)C(=O)N[C@@H](CCCNC(=N)N)C(=O)N[C@H]1CSSC[C@@H]2NC(=O)[C@H](CCCCN)NC(=O)CNC(=O)[C@H](Cc3ccccc3)NC(=O)[C@H]([C@@H](C)CC)NC(=O)[C@H](CO)NC(=O)CNC(=O)[C@H]([C@@H](C)CC)NC(=O)[C@H](C)NC(=O)[C@H](CCCCN)NC(=O)[C@H](CC(C)C)NC(=O)[C@@H]3CSSC[C@@H](C(=O)N[C@@H](Cc4ccc(O)cc4)C(=O)N[C@@H](CCC(N)=O)C(N)=O)NC(=O)[C@H](CCCCN)NC(=O)[C@H](CSSC[C@H](NC(=O)[C@H](CCC(=O)O)NC(=O)[C@H](C(C)C)NC(=O)[C@H](CO)NC(=O)[C@H](C)NC(=O)[C@H](CO)NC1=O)C(=O)N[C@@H](CCCCN)C(=O)N[C@@H](CCC(N)=O)C(=O)N[C@@H](CCCCN)C(=O)N3)NC(=O)[C@H](CCCCN)NC(=O)[C@H](CCCCN)NC(=O)[C@H](CC(N)=O)NC(=O)[C@H](CCSC)NC2=O [Compound 74] (H-S[Nle]D[Nle]RCSASVECKQKCLKAIGSIFGKCMNKKCKCYQ-NH2; disulfide 6-27, 12-32, 16-34) | 0.36 nM | – | 1.6 nM
CCCC[C@H](NC(=O)[C@H](CC(=O)O)NC(=O)[C@H](CCCC)NC(=O)[C@@H](N)CO)C(=O)N[C@@H](CCCNC(=N)N)C(=O)N[C@H]1CSSC[C@@H]2NC(=O)[C@H](CCCCN)NC(=O)CNC(=O)[C@H](Cc3ccccc3)NC(=O)[C@H]([C@@H](C)CC)NC(=O)[C@H](CO)NC(=O)CNC(=O)[C@H]([C@@H](C)CC)NC(=O)[C@H](C)NC(=O)[C@H](C(C)C)NC(=O)[C@H](CC(C)C)NC(=O)[C@@H]3CSSC[C@@H](C(=O)N[C@@H](Cc4ccc(O)cc4)C(=O)N4CCC[C@H]4C(=O)N[C@@H](CCCNC(=N)N)C(N)=O)NC(=O)[C@H](CCCCN)NC(=O)[C@H](CSSC[C@H](NC(=O)[C@H](CCC(=O)O)NC(=O)[C@H](C(C)C)NC(=O)[C@H](CO)NC(=O)[C@H](C)NC(=O)[C@H](CO)NC1=O)C(=O)N[C@@H](CCCCN)C(=O)N[C@@H](CCC(N)=O)C(=O)N[C@@H](CCCCN)C(=O)N3)NC(=O)[C@H](CCCCN)NC(=O)[C@H](CCCCN)NC(=O)[C@H](CC(N)=O)NC(=O)[C@H](CCSC)NC2=O [Compound 78] (H-S[Nle]D[Nle]RCSASVECKQKCLVAIGSIFGKCMNKKCKCYPR-NH2; disulfide 6-27, 12-32, 16-34) | 0.12 nM | ≤ 1 nM | 0.39 nM
CCCC[C@@H]1NC(=O)[C@@H]2CSSC[C@H](NC(=O)[C@H](CCCNC(=N)N)NC(=O)[C@H](CCCC)NC(=O)[C@H](CC(=O)O)NC(=O)[C@H](CCCC)NC(=O)[C@@H](N)CO)C(=O)N[C@@H](CO)C(=O)N[C@@H](C)C(=O)N[C@@H](CO)C(=O)N[C@@H](C(C)C)C(=O)N[C@@H](CCC(=O)O)C(=O)N[C@H]3CSSC[C@H](NC(=O)[C@H](CCCCN)NC(=O)[C@H](CCCCN)NC(=O)[C@H](CC(N)=O)NC1=O)C(=O)N[C@@H](CCCCN)C(=O)N[C@H](C(=O)N[C@@H](Cc1ccc(O)cc1)C(=O)N1CCC[C@H]1C(=O)N[C@@H](CCCNC(=N)N)C(=O)O)CSSC[C@H](NC(=O)[C@H](CCCCN)NC(=O)[C@H](CCC(N)=O)NC(=O)[C@H](CCCCN)NC3=O)C(=O)N[C@@H](CC(C)C)C(=O)N[C@@H](CCCCN)C(=O)N[C@@H](C)C(=O)N[C@@H]([C@@H](C)CC)C(=O)NCC(=O)N[C@@H](CO)C(=O)N[C@@H]([C@@H](C)CC)C(=O)N[C@@H](Cc1ccccc1)C(=O)NCC(=O)N[C@@H](CCCCN)C(=O)N2 [Compound 82] (H-S[Nle]D[Nle]RCSASVECKQKCLKAIGSIFGKC[Nle]NKKCKCYPR-OH; disulfide 6-27, 12-32, 16-34) | 0.49 nM | ≤ 1 nM | 0.52 nM
CCCC[C@@H]1NC(=O)[C@@H]2CSSC[C@H](NC(=O)[C@H](CCCNC(=N)N)NC(=O)[C@H](CCCC)NC(=O)[C@H](CC(=O)O)NC(=O)[C@H](CCCC)NC(=O)[C@@H](N)CO)C(=O)N[C@@H](CO)C(=O)N[C@@H](C)C(=O)N[C@@H](CO)C(=O)N[C@@H](C(C)C)C(=O)N[C@@H](CCC(=O)O)C(=O)N[C@H]3CSSC[C@H](NC(=O)[C@H](CCCCN)NC(=O)[C@H](CCCCN)NC(=O)[C@H](CC(N)=O)NC1=O)C(=O)N[C@@H](CCCCN)C(=O)N[C@H](C(=O)N[C@@H](Cc1ccc(O)cc1)C(=O)N1CCC[C@H]1C(=O)N[C@@H](CCCNC(=N)N)C(N)=O)CSSC[C@H](NC(=O)[C@H](CCCCN)NC(=O)[C@H](CCC(=O)O)NC(=O)[C@H](CCCCN)NC3=O)C(=O)N[C@@H](CC(C)C)C(=O)N[C@@H](CCC(N)=O)C(=O)N[C@@H](C)C(=O)N[C@@H]([C@@H](C)CC)C(=O)NCC(=O)N[C@@H](CO)C(=O)N[C@@H]([C@@H](C)CC)C(=O)N[C@@H](Cc1ccccc1)C(=O)NCC(=O)N[C@@H](CCCCN)C(=O)N2 [Compound 84] (H-S[Nle]D[Nle]RCSASVECKEKCLQAIGSIFGKC[Nle]NKKCKCYPR-NH2; disulfide 6-27, 12-32, 16-34) | 0.084 nM | ≤ 1 nM | 0.69 nM
CCCC[C@H](NC(=O)[C@@H]1CCCN1)C(=O)N[C@@H](CC(=O)O)C(=O)N[C@@H](CCCC)C(=O)N[C@@H](CCCNC(=N)N)C(=O)N[C@H]1CSSC[C@@H]2NC(=O)[C@H](CCCCN)NC(=O)CNC(=O)[C@H](Cc3ccccc3)NC(=O)[C@H]([C@@H](C)CC)NC(=O)[C@H](CO)NC(=O)CNC(=O)[C@H]([C@@H](C)CC)NC(=O)[C@H](C)NC(=O)[C@H](CCCC(N)=O)NC(=O)[C@H](CC(C)C)NC(=O)[C@@H]3CSSC[C@@H](C(=O)N[C@@H](Cc4ccc(O)cc4)C(=O)N4CCC[C@H]4C(=O)N[C@@H](CCCNC(=N)N)C(N)=O)NC(=O)[C@H](CCCCN)NC(=O)[C@H](CSSC[C@H](NC(=O)[C@H](CCC(=O)O)NC(=O)[C@H](C(C)C)NC(=O)[C@H](CO)NC(=O)[C@H](C)NC(=O)[C@H](CO)NC1=O)C(=O)N[C@@H](CCCCN)C(=O)N[C@@H](CCC(=O)O)C(=O)N[C@@H](CCCCN)C(=O)N3)NC(=O)[C@H](CCCCN)NC(=O)[C@H](CCCCN)NC(=O)[C@H](CC(N)=O)NC(=O)[C@H](CCCC)NC2=O [Compound 85] (H-P[Nle]D[Nle]RCSASVECKEKCL[Aad](NH2)AIGSIFGKC[Nle]NKKCKCYPR-NH2; disulfide 6-27, 12-32, 16-34) | 0.15 nM | – | 1.4 nM
CCCC[C@@H]1NC(=O)[C@@H]2CSSC[C@H](N)C(=O)N[C@@H](CO)C(=O)N[C@@H](C)C(=O)N[C@@H](CO)C(=O)N[C@@H](C(C)C)C(=O)N[C@@H](CCC(=O)O)C(=O)N[C@H]3CSSC[C@H](NC(=O)[C@H](CCCCN)NC(=O)[C@H](CCCCN)NC(=O)[C@H](CC(N)=O)NC1=O)C(=O)N[C@@H](CCCCN)C(=O)N[C@H]1CSSC[C@H](NC(=O)[C@H](CCCCN)NC(=O)[C@H](CCC(N)=O)NC(=O)[C@H](CCCCN)NC3=O)C(=O)N[C@@H](CC(C)C)C(=O)N[C@@H](CCCCN)C(=O)N[C@@H](C)C(=O)N[C@@H]([C@@H](C)CC)C(=O)NCC(=O)N[C@@H](CSSC[C@@H](C(N)=O)NC(=O)[C@@H]3CCCN3C(=O)[C@H](Cc3ccc(O)cc3)NC1=O)C(=O)N[C@@H]([C@@H](C)CC)C(=O)N[C@@H](Cc1ccccc1)C(=O)NCC(=O)N[C@@H](CCCCN)C(=O)N2 [Compound 86] (H-CSASVECKQKCLKAIGCIFGKC[Nle]NKKCKCYPC-NH2; disulfide 1-22, 7-27, 11-29, 17-32) | 0.2 nM | – | 1.1 nM
CCCC[C@@H]1NC(=O)[C@@H]2CSSC[C@H](NC(=O)[C@H](CCCNC(=N)N)NC(=O)[C@H](CCCC)NC(=O)[C@H](CC(=O)O)NC(=O)[C@H](CCCC)NC(=O)[C@@H](N)CO)C(=O)N[C@@H](CO)C(=O)N[C@@H](C)C(=O)N[C@@H](CO)C(=O)N[C@@H](C(C)C)C(=O)N[C@@H](CCC(=O)O)C(=O)N[C@H]3CSSC[C@H](NC(=O)[C@H](CCCCN)NC(=O)[C@H](CCCCN)NC(=O)[C@H](CC(N)=O)NC1=O)C(=O)N[C@@H](CCCCN)C(=O)N[C@H]1CSSC[C@H](NC(=O)[C@H](CCCCN)NC(=O)[C@H](CCC(N)=O)NC(=O)[C@H](CCCCN)NC3=O)C(=O)N[C@@H](CC(C)C)C(=O)N[C@@H](C)C(=O)N[C@@H](C)C(=O)N[C@@H]([C@@H](C)CC)C(=O)NCC(=O)N[C@@H](CSSC[C@@H](C(N)=O)NC(=O)[C@@H]3CCCN3C(=O)[C@H](Cc3ccc(O)cc3)NC1=O)C(=O)N[C@@H]([C@@H](C)CC)C(=O)N[C@@H](Cc1ccccc1)C(=O)NCC(=O)N[C@@H](CCCCN)C(=O)N2 [Compound 87] (H-S[Nle]D[Nle]RCSASVECKQKCLAAIGCIFGKC[Nle]NKKCKCYPC-NH2; disulfide 6-27, 12-32, 16-34, 22-37) | 0.1 nM | ≤ 1 nM | 0.73 nM
